What was measured:
[1] = test system: patients with relapsed or refractory peripheral T-cell lymphoma (R/R PTCL); experiment: Expansion phase (PRIMO-EP) of the trial in R/R PTCL: duvelisib 75 mg BID for 2 cycles, then 25 mg BID; type: in vivo, human; conditions: for AESI Cutaneous reactions, % / AESI Diarrhea, % / AESI Infections, % / AESI Neutropenia/neutrophil count decreased, % / AESI Pneumonia, % / AESI Pneumonitis, % / AESI Transaminase elevation, % / AESI Colitis, %: all grades
Protocol: An expansion phase of the above trial described in Example 1 was carried out. Based on the dose optimization results, patients in the expansion phase received duvelisib at 75 mg BID for 2 cycles to maximize rapid tumor control, followed by 25 mg BID to maintain long-term disease control and mitigate late toxicities, until progressive disease (PD) or unacceptable toxicity. The primary endpoint was the overall response rates (ORR) as assessed by the Independent Review Committee (IRC), and secondary endpoints included ORR by INV assessment, duration of response (DOR), progression free survival (PFS), overall survival (OS), disease control rate (DCR), and safety. […] Analysis was performed on data collected from a total of 101 patients with a median follow-up of 8.7 months from time of first response. All patients had pathologically confirmed PTCL (WHO criteria) with a CD4 lymphocyte count of ≥50/mm^3 and received ≥2 cycles of ≥1 prior standard regimen. Prior treatments received included CHOP/R-CHOP, CHOEP/EPOCH, or BV/BV-chemo (all 36.60% r), salvage chemo after CHOP/R-CHOP or CHOEP/EPOCH (37.60), and SCT (21.80). The mean treatment duration was 17.1 weeks, and the median (range) treatment duration was 9.0 (1-79) weeks. Exposure by treatment duration included 43.6% (≤2 cycles), 23.8% (>2-4 cycles), and […] (>4 cycles). The ORR by IRC was […]. In patients with ≥3 prior lines, the ORR was maintained (49.10%).

[2] = test system: patients with relapsed or refractory peripheral T-cell lymphoma (R/R PTCL); experiment: Phase 2 open-label parallel cohort trial of duvelisib in R/R PTCL, dose-optimization phase (25 mg BID vs 75 mg BID); type: in vivo, human; conditions: for overall response rate (ORR): 28-day cycles, oral
Protocol: Prior to the present disclosure, Applicant ran a clinical trial using duvelisib to treat PTCL. The trial included two cohorts. In cohort 1, subjects were orally administered duvelisib at a starting dose of 25 mg twice daily (BID), with potential escalation on a per-patient basis to 50 mg BID and then 75 mg BID, based on the patient's response to and tolerance of therapy. Doses were administered in 28-day cycles. In cohort 2, subjects were orally administered 75 mg duvelisib BID, in 28-day cycles. The overall response rate (ORR) in the 75 mg BID cohort was 54% ORR.
A phase 2, open-label, multi-center, parallel cohort trial of duvelisib in R/R PTCL was carried out. Patients were treated with duvelisib for two 28-day cycles with either 25 mg BID (DUV25) or 75 mg BID (DUV75). Patients with pathologically confirmed R/R PTCL (WHO criteria) after ≥2 cycles of ≥1 prior standard regimen, and a CD4 lymphocyte count of ≥50/mm^3 were eligible for enrollment in the study.

[3] = Prior Salvage Chemotherapy CHOP/R-CHOP or CHOEP/EPOCH
[4] = all causality, 1 prior regimen (N = 26)
[5] = all causality, 2 prior regimens (N = 22)
[6] = all causality, 3+ prior regimens (N = 53)
[7] = all causality, Tx Duration >2-4 cycles (N = 56)
[8] = all causality, Tx Duration >4 cycles (N = 31)
[9] = all causality, Tx Duration ≤2 cycles (N = 101)

C[C@H](Nc1ncnc2[nH]cnc12)c1cc2cccc(Cl)c2c(=O)n1-c1ccccc1 [duvelisib, (S)-3-(1-((9H-purin-6-yl)amino)ethyl)-8-chloro-2-phenylisoquinolin-1(2H)-one]
Response (CR + PR) by number of prior regimens ([1]; 1 prior regimen (n = 26)): 34.6% | Response (CR + PR) by number of prior regimens ([1]; 2 prior regimens (n = 22)): 63.6% | Response (CR + PR) by number of prior regimens ([1]; 3+ prior regimens (n = 53)): 49.1% | TEAEs leading to dose hold ([1]; % of patients): 37.6% | TEAEs leading to dose reduction ([1]; % of patients): 3.0% | diarrhea ([1]; AE, all causality, maximum GR3): 7.9% | increased alanine aminotransferase (ALT) ([1]; AE, all causality, maximum GR3): 14.9% | increased aspartate aminotransferase (AST) ([1]; AE, all causality, maximum GR3): 13.4% | neutropenia ([1]; AE, all causality, maximum GR3): 13.8% | rash maculo-papular ([1]; AE, all causality, maximum GR3): 7.9% | increased ALT ([1]; AE, all causality, maximum GR4): 5.9% | Median (range) PFS ([1]; N = 101): 3.62 (0.03+-17.2+) months | deaths in TEAEs other than PD (total) ([1]; N = 101): 8 | BOR by prior therapy: CR ([1]; Prior BV or BV-chemo): 32.4 % of subgroup | BOR by prior therapy: PR ([1]; Prior BV or BV-chemo): 10.8 % of subgroup | BOR by prior therapy: SD ([1]; Prior BV or BV-chemo): 0 % of subgroup | BOR by prior therapy: CR ([1]; Prior CHOEP/EPOCH): 27.0 % of subgroup | BOR by prior therapy: PR ([1]; Prior CHOEP/EPOCH): 27.0 % of subgroup | BOR by prior therapy: SD ([1]; Prior CHOEP/EPOCH): 0 % of subgroup | BOR by prior therapy: CR ([1]; Prior CHOP/R-CHOP): 37.8 % of subgroup | BOR by prior therapy: PR ([1]; Prior CHOP/R-CHOP): 5.4 % of subgroup | BOR by prior therapy: SD ([1]; Prior CHOP/R-CHOP): 2.7 % of subgroup | BOR by prior therapy: CR ([1]; Prior SCT): 22.7 % of subgroup | BOR by prior therapy: PR ([1]; Prior SCT): 27.3 % of subgroup | BOR by prior therapy: SD ([1]; Prior SCT): 0 % of subgroup | BOR by prior therapy: CR [1, 3]: 44.7 % of subgroup | BOR by prior therapy: PR [1, 3]: 7.9 % of subgroup | BOR by prior therapy: SD [1, 3]: 0 % of subgroup | AESI Cutaneous reactions, % [1, 4]: (38.5) % | AESI Diarrhea, % [1, 4]: (15.4) % | AESI Infections, % [1, 4]: (30.8) % | AESI Neutropenia/neutrophil count decreased, % [1, 4]: (38.5) % | AESI Pneumonia, % [1, 4]: (3.8) % | AESI Pneumonitis, % [1, 4]: (3.8) % | AESI Transaminase elevation, % [1, 4]: (65.4) % | AESI Cutaneous reactions, % [1, 5]: (54.5) % | AESI Diarrhea, % [1, 5]: (27.3) % | AESI Infections, % [1, 5]: (31.8) % | AESI Neutropenia/neutrophil count decreased, % [1, 5]: (27.3) % | AESI Transaminase elevation, % [1, 5]: (40.9) % | AESI Colitis, % [1, 6]: (1.9) % | AESI Cutaneous reactions, % [1, 6]: (24.5) % | AESI Diarrhea, % [1, 6]: (39.6) % | AESI Infections, % [1, 6]: (49.1) % | AESI Neutropenia/neutrophil count decreased, % [1, 6]: (32.1) % | AESI Pneumonia, % [1, 6]: (3.8) % | AESI Pneumonitis, % [1, 6]: (1.9) % | AESI Transaminase elevation, % [1, 6]: (34.0) % | AESI Cutaneous reactions, % [1, 7]: (28.6) % | AESI Diarrhea, % [1, 7]: (14.3) % | AESI Infections, % [1, 7]: (16.1) % | AESI Neutropenia/neutrophil count decreased, % [1, 7]: (14.3) % | AESI Pneumonitis, % [1, 7]: (1.8) % | AESI Transaminase elevation, % [1, 7]: (30.4) % | AESI Colitis, % [1, 8]: (3.2) % | AESI Cutaneous reactions, % [1, 8]: (22.6) % | AESI Diarrhea, % [1, 8]: (22.6) % | AESI Infections, % [1, 8]: (32.3) % | AESI Neutropenia/neutrophil count decreased, % [1, 8]: (25.8) % | AESI Pneumonia, % [1, 8]: (3.2) % | AESI Cutaneous reactions, % [1, 9]: (19.8) % | AESI Diarrhea, % [1, 9]: (19.8) % | AESI Infections, % [1, 9]: (26.7) % | AESI Neutropenia/neutrophil count decreased, % [1, 9]: (28.7) % | AESI Pneumonia, % [1, 9]: (2.0) % | AESI Pneumonitis, % [1, 9]: (1.0) % | response rates regardless of number of prior regimens ([1]; all prior-regimen subgroups): ≥ 35% | Median duration of response ([1]; all responders): 7.7 months | increase of rate of cutaneous reactions ([1]; from Cycle ≤2 to Cycle >4): 2.8% | increase of rate of diarrhea ([1]; from Cycle ≤2 to Cycle >4): 2.8% | increase of rate of infections ([1]; from Cycle ≤2 to Cycle >4): 5.6% | tolerability ([1]; interim results of the expansion phase): well tolerated | Incidence of pneumonia, pneumonitis, and colitis ([1]; regardless of treatment duration, Cycle ≤2 to Cycle >4): 0-3.2% | Median duration of response ([1]; those in CR): 7.4 months | overall response rate (ORR) ([2]; 25 mg BID cohort (N=20)): 35% | patients with disease progression, 25 mg BID cohort compared to 75 mg BID ([2]; 25 mg BID cohort vs 75 mg BID cohort): three times as many patients experienced disease progression | overall response rate (ORR) ([2]; 75 mg BID cohort (N=13)): 54% | Discontinuations due to AEs ([2]; DUV25, 25 mg BID): 30% | TEAEs leading to discontinuation ([2]; DUV25, 25 mg BID): disease progression, pneumonitis (2 patients each), cardiac arrest, hypercalcemia, hyperglycemia, pneumonia, rash maculopapular, and respiratory failure (1 each) | fatal AEs (number) ([2]; DUV25, 25 mg BID): 5 | Serious TEAEs occurred in ([2]; DUV25, 25 mg BID (n=15/20)): 75% | Discontinuations due to AEs ([2]; DUV75, 75 mg BID): 8% | TEAEs leading to discontinuation ([2]; DUV75, 75 mg BID): disease progression, infectious colitis, and sepsis (1 each) | fatal AEs (number) ([2]; DUV75, 75 mg BID (disease progression)): 1 | Serious TEAEs occurred in ([2]; DUV75, 75 mg BID (n=9/13)): 69% | manageability of most TEAEs ([2]; both cohorts): manageable with dose reductions and dose holds | Serious TEAEs in ≥2 patients ([2]; both cohorts (N=33)): colitis, diarrhea, abdominal pain, pyrexia, PD, sepsis, pneumonia, hyponatremia, rash maculopapular, dyspnea, and respiratory failure

— patent US20250032499A1, “METHODS OF TREATING PERIPHERAL T-CELL LYMPHOMA” (Secura Bio, Inc., priority 2021, published 2025)
